Laboratory results: the NIST ThermoML archive (doi:10.1016/j.jct.2019.02.028)
Numbers after ± are expanded uncertainties.

Settings: Gas, Burnett expansion method

Structure (SMILES): [He] [helium]
- mass density (323.66 K, 875.31 kPa): 1.297 ± 0.0035 kg/m3
- mass density (323.67 K, 386.6 kPa): 0.5746 ± 0.0026 kg/m3
- mass density (323.67 K, 1986.4 kPa): 2.9278 ± 0.0063 kg/m3
- mass density (323.67 K, 2996.7 kPa): 4.3975 ± 0.0091 kg/m3
- mass density (323.68 K, 581.96 kPa): 0.8635 ± 0.0029 kg/m3
- mass density (323.68 K, 1318.2 kPa): 1.9481 ± 0.0046 kg/m3
- mass density (323.68 K, 4542.5 kPa): 6.6206 ± 0.013 kg/m3
- mass density (333.58 K, 398.41 kPa): 0.5744 ± 0.0026 kg/m3
- mass density (333.58 K, 901.91 kPa): 1.2964 ± 0.0035 kg/m3
- mass density (333.58 K, 1358 kPa): 1.9472 ± 0.0045 kg/m3
- mass density (333.58 K, 3086.7 kPa): 4.3949 ± 0.0091 kg/m3
- mass density (333.58 K, 4675.1 kPa): 6.6128 ± 0.013 kg/m3
- mass density (333.59 K, 2046.3 kPa): 2.926 ± 0.0063 kg/m3
- mass density (333.62 K, 599.5 kPa): 0.8631 ± 0.0029 kg/m3
- mass density (343.5 K, 616.99 kPa): 0.8628 ± 0.0028 kg/m3
- mass density (343.5 K, 1397.8 kPa): 1.9464 ± 0.0045 kg/m3
- mass density (343.51 K, 928.6 kPa): 1.2959 ± 0.0034 kg/m3
- mass density (343.51 K, 3177 kPa): 4.3922 ± 0.0091 kg/m3
- mass density (343.51 K, 4808.1 kPa): 6.6049 ± 0.013 kg/m3
- mass density (343.52 K, 410.1 kPa): 0.5742 ± 0.0025 kg/m3
- mass density (343.52 K, 2106 kPa): 2.9243 ± 0.0063 kg/m3
- mass density (353.39 K, 421.94 kPa): 0.5741 ± 0.0025 kg/m3
- mass density (353.39 K, 634.63 kPa): 0.8624 ± 0.0028 kg/m3
- mass density (353.39 K, 3267.2 kPa): 4.3896 ± 0.009 kg/m3
- mass density (353.39 K, 4938.7 kPa): 6.5971 ± 0.013 kg/m3
- mass density (353.4 K, 954.95 kPa): 1.2953 ± 0.0034 kg/m3
- mass density (353.4 K, 1437.5 kPa): 1.9455 ± 0.0044 kg/m3
- mass density (353.4 K, 2165.8 kPa): 2.9225 ± 0.0062 kg/m3
- mass density (363.2 K, 2225.1 kPa): 2.9208 ± 0.0062 kg/m3
- mass density (363.28 K, 1476.9 kPa): 1.9446 ± 0.0044 kg/m3
- mass density (363.28 K, 5072.4 kPa): 6.5893 ± 0.013 kg/m3
- mass density (363.29 K, 433.46 kPa): 0.5739 ± 0.0024 kg/m3
- mass density (363.29 K, 433.47 kPa): 0.5739 ± 0.0024 kg/m3
- mass density (363.29 K, 652.06 kPa): 0.862 ± 0.0027 kg/m3
- mass density (363.29 K, 652.07 kPa): 0.862 ± 0.0027 kg/m3
- mass density (363.29 K, 981.18 kPa): 1.2947 ± 0.0033 kg/m3
- mass density (363.29 K, 2225 kPa): 2.9208 ± 0.0062 kg/m3
- mass density (363.29 K, 3356.7 kPa): 4.387 ± 0.009 kg/m3
